According to US20210301038A1, “POLYSIALIC ACID AND DERIVATIVES THEREOF, PHARMACEUTICAL COMPOSITION AND METHOD OF PRODUCING POLYSIALIC ACID” (Medizinische Hochschule Hannover (MHH), priority 2018, published 2021):

Experiments:
[1] = test system: layer II/III - layer V synapses in mPFC slices; assay: TBS-induced LTP (fEPSP) in sham- and endoNF-treated mPFC slices from C57BL/6 mice; type: cell-based, mouse; settings: for LTP level 50-60 min after TBS: endoNF-treated slices, Ro 25-6981 0.3 μM, DP12 1 μg/ml, DP5 1 or 10 μg/ml, sarcosine 0.75 mM, SSR 504734 3 μM
Protocol: (§1) For endoNF treatment in C57BL/6J mice, slices were first allowed to recover for 20 min at room temperature (22-24° C.) in recording aCSF and were then placed in a 24-well plate to be incubated in 2 ml of aCSF without (sham) or with addition of endoNF (10 μg/ml) at 35° C. for 2 hours. The 24-well plate was installed in a water bath (ED, Julabo, Seelbach, Germany). For field excitatory postsynaptic potential (fEPSP) recordings in knockout and transgenic mice, mPFC slices were incubated in recording aCSF for >2 hours at room temperature before recordings. For patch-clamp recordings in knockout mice, slices were incubated first at 35° C. for 20 min and then at room temperature for >30 min before recordings started. The aCSF was continuously gassed with 95% O2/5% CO2 during all incubation steps and recordings.
(§2) Prefrontal slices (400 μm) were transferred to a submerged-type recording MC membrane chamber (volume 2 ml; Scientific Systems Design Inc., Mississauga, Ontario, Canada) perfused with oxygenated recording ACSF at a flow rate of 4 ml/min and maintained at room temperature (22-25° C.), unless stated otherwise in the “Results”-section given below. Field EPSPs were evoked and recorded using thin-walled glass electrodes (borosilicate glass, wall thickness 0.188, length 100, and outer diameter 1.5 mm, Hilgenberg, Malsfeld, Germany) filled with recording aCSF in 400 μm-thick mPFC slices. In order to stimulate electrically the input fibers of pyramidal cells, the stimulation electrode (0.3-0.5 MΩ) was inserted into layers II/III of the prelimbic cortex. The recording electrode (2-2.5 MΩ) was placed in the vicinity of dendrites and cell bodies of pyramidal neurons in layer V (Huang et al., 2004).
(§3) Before LTP induction, basal synaptic transmission was recorded in each slice and the relationship between stimulus intensity and fEPSP slope was measured. Basal fEPSPs were evoked at 0.05 Hz for at least 10 min. The supramaximal slope was determined by gradually increasing the stimulation intensity until a population spike in the fEPSP became first visible. The stimulation intensity was adjusted to elicit a basal fEPSP with a slope of approximately 50% of the supramaximal value.
(§4) LTP was induced by application of five trains of theta-burst stimulation (TBS) with an inter-theta-train interval of 20 s (Brennaman et al., 2011). Each train consisted of 8 bursts delivered at 5 Hz. Each burst consisted of four pulses delivered at 100 Hz. Duration of pulses was 0.2 ms. For calculation of the LTP level, the mean fEPSP slope was measured between 50-60 min after TBS delivery, and it was then normalized to mean baseline fEPSP slope during 0-10 min before TBS. Stimulus artifacts in representative fEPSP examples in figures were blanked to facilitate the perception of fEPSPs recorded in the mPFC. Recording and analysis of LTP in St8Sia4^−/− mice was performed in a blind manner.
The enzyme endosialidase NF (endoNF) (Stummeyer et al., 2005) and the short form of polysialic acid composed of 10 or twelve sialic acid residues (DP10 and DP12) were purified as described previously (Keys et al., 2014). Sialic acid (N-acetylneuraminic acid, DP1) and the pentamer of sialic acid sodium salt (DP5) were obtained from EY Laboratories (San Mateo, Calif., USA). DMB-labelled DP2 and DP12, and non-labelled avDP10-9OAc were synthesized in the laboratory of Rita Gerardy-Schahn (see sections Synthesis of DMB-DP2 and DMB-DP12 and Synthesis of avDP10-9OAc, respectively). […]

[2] = test system: mPFC slices from St8sia4−/− mice; assay: TBS-induced LTP in mPFC slices from ST8SIA4-deficient mice and wild-type littermates; type: cell-based, mouse; settings: Ro 25-6981 0.3 μM, DP12 1 μg/ml, sarcosine 0.75 mM; for LTP magnitude: St8sia4+/+ mice; for LTP level 50-60 min after TBS: St8sia4−/− mice
Protocol: as §1, §2, §3, §4

[3] = test system: CA3-CA1 synapses in slices from 5×FAD mice; assay: LTP in CA3-CA1 synapses in slices from 5×FAD mice; type: cell-based, mouse; settings: bath application 1 μg/ml (approx. 0.3 μM)
Protocol: as §4
Finally, we tested if DP12 would have an effect in the 5×FAD mouse model of AD associated with amyloidosis and upregulation of extracellular glutamate and signaling through extra synaptic GluN2B receptors. Using a special slice incubation chamber with improved oxygen supply, we were able to induce LTP in CA3-CA1 synapses in slices from 5×FAD mice (FIG. 8).

5×FAD mice = assay: Recency test (increased difficulty) in 5×FAD mice; type: in vivo, mouse; settings: intranasal, 0.5 mg/kg DP12 or equimolar
Protocol: The recency test comprised of two encoding phases followed by a retrieval phase (modified from Nelson et al., 2011). The interval between the encoding phases was 1 h, and the interval between the second encoding phase and the retrieval phase was 10 min, except for experiments in 5×FAD mice when both intervals were 90 min to make the task more difficult. In the first encoding phase, animals were placed into the open field arena and allowed to explore a pair of identical objects for 10 min. Then, a different pair of identical objects was presented in the second encoding phase (10 min total exploration time). During the retrieval phase, two different objects, one object from each encoding phase, were placed into the apparatus and animals were given 10 min to explore them.
Animals were randomly assigned to treatment groups using a randomized block design to counterbalance differences in age. The time of the day when tests were performed for different animals was also counterbalanced between treatment groups using a randomized block design. All measurements and statistical analyses were performed performed blindly, i.e. the tubes containing drugs/vehicle were coded. Exploration was defined as the animal approaching the object at a distance of less than 2 cm. The animal climbing onto the object with both hind- and forelimbs was not considered as exploration. In the same trial, objects were counterbalanced, and between trials, the placements of novel and familiar objects were changed. The objects used in the novel object recognition test were not employed in the recency test. Novelty detection was evaluated by calculating the discrimination ratio as follows: [novel object time−familiar object time]/[novel object time+familiar object time]×100%. In the recency test, the discrimination ratio was calculated as follows: [least recent object time−most recent object time]/[least object time+most recent object time]×100%. Unreliable measurements (about 10%), when animals spent in total ≤10 s near to both objects, were excluded from analysis.
As the recency test was consistently used for analysis of DP12 effects in other mouse models, it was further investigated whether 13- to 14-month-old 5×FAD mice are impaired in this form of memory. In this series of experiments, the intervals between each session during recency test were increased to 90 min to increase the difficulty to recall the temporal order of the two objects shown in the arena (FIG. 12(A)). […] To verify whether DP12 or avDP10-9OAc may improve cognitive function in the 5×FAD model of AD, these compounds or a vehicle (H2O) were intranasally delivered in the same cohort of 5×FAD mice before multiple recency test sessions (separated by 4 day-interval). The numbers of mice in each treatment group during one session were counterbalanced and each mouse received in a random order both drugs and the vehicle. […] In contrast, vehicle-treated 5×FAD mice explored the two objects equally (FIG. 12(C)).

[4] = 2 hours before test, 90 min intervals

Compound	LTP level 50-60 min after TBS [1]	LTP magnitude [2]	LTP level 50-60 min after TBS [2]	LTP levels 50-60 min after theta-burst stimulation [3]	exploration of least recent versus most recent object in the retrieval phase (5×FAD mice; [4])	object discrimination (discrimination ratio) compared to vehicle (5×FAD mice; [4])	number of mice showing discrimination more than 20% (5×FAD mice; n=11 5×FAD mice)	LTP magnitude ([1]; sham-treated slices, 0.3 μM)
(α(2→8)Neu5Ac)12 [DP12]	full restoration of LTP levels	no effect	full restoration of LTP levels	strongly increased	clear preference for the least recently explored object	significant difference in object discrimination	10 of 11	–
C[C@@H](CN1CCC(Cc2ccccc2)CC1)[C@@H](O)c1ccc(O)cc1.O=C(O)/C=C\C(=O)O [Ro 25-6981, (αR,βS)-α-(4-hydroxyphenyl)-β-methyl-4-(phenylmethyl)-1-piperidinepropanol maleate]	full restoration of LTP levels	no effect	full restoration of LTP levels	–	–	–	–	no effect
